≈ marks a conversion by molar mass, not a printed value.
Experiments:
[1] = cited from earlier work
[2] = Equilibrium aqueous solubility of cilostazol in simulated intestinal fluid with solubilizers; assay type: physicochemical
Procedure: Solutions of simulated intestinal fluid without enzyme (USP 26, pH 6.8) were prepared over a range of solubilizer concentrations. Excess cilostazol was added and equilibrated with gentle mixing at controlled temperature (37±0.5° C.). The aqueous solutions with excess drug were then filtered ([…] nominal pore size) and the clear filtrate was diluted and assayed by HPLC for cilostazol concentrations.

[3] = immediate release tablet dosage form; high fat meal; cited from earlier work

| solubility enhancement of cilostazol ([2]; Cremphor RH40 at 0.05% w/v) [%] | solubility enhancement of cilostazol ([2]; Cremphor RH40 at 1% w/v) [fold] | increase in solubility of cilostazol over its intrinsic aqueous solubility ([2]; d-a-tocopherol polyethylene glycol 1000 succinate at 0.05% w/v) [%] | increase in solubility of cilostazol over its intrinsic aqueous solubility ([2]; d-a-tocopherol polyethylene glycol 1000 succinate at 1% w/v) [fold] | solubility ([2]; simulated intestinal fluid without enzyme (USP 26), fassgf or other biorelevant, thermodynamic from solid, SIF without enzyme pH 6.8, 37 °C, no solubilizer, read-out: intrinsic solubility of cilostazol) [µg/mL] | SMILES | equilibrium solubility of the acid addition HCl salt [1] | pKa [1] | water solubility [1] | aqueous solubility at low pH ([1]; low pH, limited by relatively insoluble hydrochloric acid addition salt) | AUC increase [3] | Cmax increase [3] |
| --- | --- | --- | --- | --- | --- | --- | --- | --- | --- | --- | --- |
|  |  |  |  |  | COc1ccccc1OCCNCC(O)COc1cccc2[nH]c3ccccc3c12 (centres unmarked) [Carvedilol] | about 1 mg/ml | about 7.6 | less than 0.001 mg/ml | less than 1 mg/ml |  |  |
| ~30 | ~5 | ~60 | ~10 | 6.5 (≈ 17.6 µM) | O=C1CCc2cc(OCCCCc3nnnn3C3CCCCC3)ccc2N1 [cilostazol] |  |  |  |  | about 25% | about 90% |

From patent US20200069805A1, “PHARMACEUTICAL COMPOSITIONS WITH SYNCHRONIZED SOLUBILIZER RELEASE” (Lipocine Inc., priority 2003, published 2020)
